Article PMC10951066, “The self-reactive FVIII T cell repertoire in healthy individuals relies on a short set of epitopes and public clonotypes” (Frontiers in Immunology, 2024)

Tests used:
[1] = test system: CD4 T cells from healthy donors; experiment: Large-scale CD4 T cell epitope mapping by IFN-γ ELISPOT (16 donors); assay type: cell-based, human; settings: for Donor coverage ( %): of 16 donors; for responding donors: of 16 healthy donors, individual peptide 10 µg/ml; for response intensity ( %): percentage of 872 FVIII-specific T cell lines
From the text: PBMCs were purified from the whole blood of anonymous healthy donors, who gave informed consent (Etablissement Français du Sang, Rungis, France), using Ficoll-Paque®. Monocyte-derived dendritic cells (DCs) were produced from cells isolated using Percoll gradient by 5 days of culture in AIM-V medium (Invitrogen, Villebon-sur-Yvette, France) supplemented with 1,000 U/ml recombinant human (rh) IL-4 and rhGM-CSF (both from R&D Systems, Lille, France). Mature DCs were produced by two supplementary days of culture in the presence of LPS (1 µg/ml) and R848 (10µg/ml). CD4 T cells were isolated from autologous PBMCs by positive selection using magnetic labeling with anti-CD4 mAbs conjugated to magnetic microbeads followed by magnetic cell sorting, as recommended by the manufacturer (Miltenyi Biotec, Bergisch Gladbach, Germany). Immature DCs were loaded overnight at 37 °C with either 0.2 µM of rFVIII, 0.2 µM of ovalbumin, or 0.25 µM of KLH in 96-well U-bottom plates, while mature DCs were used for FVIII peptides (10 ug/ml). CD4 T cell lines were generated in vitro in IMDM (Invitrogen) supplemented with 10% human serum, 0.24 mM glutamine, 0.55 mM asparagine, 1.5 mM arginine (all amino acids from Sigma-Aldrich), 50 U/mL penicillin/50 μg/mL of streptomycin (Invitrogen), 20 IU/mL human IL-2, and 17 IU/ml human IL-7 (premium-grade; Miltenyi Biotec) by three once-per-week rounds of stimulation of CD4 T cells (200,000 per well) with autologous DCs (20,000 per well). 10,000 lymphocytes were collected at day 19 from each T cell line (expanded T cells contained in one well) and their specificity was assessed by using IFN-g ELISPOT.
The T cell lines and APCs were plated at equal number for both stimulated and unstimulated control conditions. […] The spot number was determined by using the ELISPOT Reader System (Autoimmun Diagnostika, Ebinger, Germany). HLA restriction was assessed using monoclonal antibodies (10 μg/ml) specific to HLA-DP (B7/21), HLA-DQ (SPVL3), or HLA-DR (L243).
Based on the T cell epitope prediction software NetMHCpan4.0 ([23]), we selected 63 20-mer peptides that are predicted for their ability to bind promiscuously, with a percentile score below 10%, at least four HLA class II molecules from a selection of 15 preponderant HLA-DR alleles in our panel (as shown in ST1). […] A total of 16 healthy donors with unrelated HLA typing (ST2) were used as sources of T cells to identify FVIII-specific CD4 T cell epitopes. Specific T cell lines were generated by in vitro T cell culture using FVIII and KLH. The peptide specificity of the T cell lines raised against FVIII was assessed by two independent IFN-γ ELISPOT using peptide pools and individual peptides. […] Furthermore, four independent healthy donors were used as sources of T cells to characterize the HLA restriction and to assess the reactivity of T cell lines generated with the 18 peptides toward rFVIII. T cell lines were amplified in vitro for 28 days through stimulation with the pool of 18 peptides and then tested through IFN-γ ELISPOT.

HLA-DRB1*1101 = HLA-DRB1*1101 (Homo sapiens, UniProt P01903+P01911, A100R/A169T/A87E/I96F/K41T/L162R/M171V/P40S/Q125H/Q178H/Q39Y/Q99D/R42S/S66Y/T262R/V115G/W38E); experiment: Peptide-MHCII competition binding assay; settings: competition ELISA, pH 5.9, peptide 90.000nM – 0.9nM, HLA-DRB1 30 nM, biotinylated peptide 15nM, duplicate wells; ratios below 10 = good binding; reference peptide […]
Description: (§1) Quantitative peptide-MHCII competition binding assays were carried out to determine binding avidities of the 18 20-mer FVIII peptides to 6 HLA-DRB1. Data are presented as ratio between reference peptide IC50/FVIII-peptide IC50 tested. Briefly, non-biotinylated FVIII peptides have been diluted at a concentration of 20 mM in DMSO. 10-µl aliquots of serially diluted (90.000nM – 0.9nM in n-Octyl b-D-Glucopyranoside, 2.5 mg/ml in 1x phosphate buffer, pH 5.9) of non-biotinylated FVIII peptides, were added to duplicate wells of 96-well polypropylene plates. Serially diluted non-FVIII reference peptides known to bind to the specific HLA-DRB1 were added to separate wells as positive controls. Next, the biotinylated peptide at a concentration of 2mM was use to prepare 1000-fold pre-dilution to reach a final concentration of 15nM. The HLA-DRB1 proteins were diluted to 30 nM in n-Octyl β-D-Glucopyranoside, 2.5 mg/ml in 1x phosphate buffer, pH 5.9. […] SA-HRP (diluted 5000x in 1xPBS 0.1% Tween20) was added to each well. The plates were covered and incubated at room temperature for 60 min […] and washed. TMB (100 μl/well) was then added, and the plates were incubated at room temperature for 15-30 min. ELISA stopping solution (0.5M H2SO4) was added and then read on a FLUOstar OPTIMA fluorometer. Sigmoidal binding curves were simulated and IC50 values calculated for the FVIII peptides, based on their competition with the reference peptides for each HLA-DRB1. Data were reported as the ratio between the values of the tested peptide and of the reference peptide. Ratios below 10 correspond to good biding affinity.

HLA-DRB1*0301 = HLA-DRB1*0301 (Homo sapiens, UniProt P01903+P01911, A100K/A102G/A103R/A169T/F55Y/I96L/K41T/L162R/M171V/P40S/Q125H/Q178H/Q39Y/R42S/S66N/T106N/T262R/W38E/Y61H); experiment: Peptide-MHCII competition binding assay; settings: competition ELISA, pH 5.9, peptide 90.000nM – 0.9nM, HLA-DRB1 30 nM, biotinylated peptide 15nM, duplicate wells; ratios below 10 = good binding; reference peptide SFLLTDLINRRTPRVDGQ
Description: as §1

HLA-DRB1*0701 = HLA-DRB1*0701 (Homo sapiens, UniProt P01903+P01911, A100R/A102G/A103Q/D57E/D86V/E43K/F76Y/K127E/L162R/M171V/P40G/Q125H/Q99D/R33Q/R42Y/R54Q/S133A/S66F/T210M/V115G/Y107V/Y59L/Y89S); experiment: Peptide-MHCII competition binding assay; settings: competition ELISA, pH 5.9, peptide 90.000nM – 0.9nM, HLA-DRB1 30 nM, biotinylated peptide 15nM, duplicate wells; ratios below 10 = good binding; reference peptide PVDLHAFLSQAVFS
Description: as §1

HLA-DRB1*0101 = HLA-DRB1*0101 (Homo sapiens, UniProt P01903+P01911, A100R/D57E/F55L/F60I/F76Y/I96L/L162R/M171V/P40L/Q125E/R42F/V115G/Y59C); experiment: Peptide-MHCII competition binding assay; settings: competition ELISA, pH 5.9, peptide 90.000nM – 0.9nM, HLA-DRB1 30 nM, biotinylated peptide 15nM, duplicate wells; ratios below 10 = good binding; reference peptide […]
Description: as §1

HLA-DRB1*0401 = HLA-DRB1*0401 (Homo sapiens, UniProt P01903+P01911, A100K/A169T/F76Y/I96L/K127E/L162R/M171V/N62H/P40V/Q125Y/R42H/S133A/S149N/S66Y/V115G/V209L/W38E); experiment: Peptide-MHCII competition binding assay; settings: competition ELISA, pH 5.9, peptide 90.000nM – 0.9nM, HLA-DRB1 30 nM, biotinylated peptide 15nM, duplicate wells; ratios below 10 = good binding; reference peptide […]
Description: as §1

HLA-DRB1*1501 = HLA-DRB1*1501 (Homo sapiens, UniProt P01903+P01911); experiment: Peptide-MHCII competition binding assay; settings: competition ELISA, pH 5.9, peptide 90.000nM – 0.9nM, HLA-DRB1 30 nM, biotinylated peptide 15nM, duplicate wells; ratios below 10 = good binding; reference peptide ENPVVHFFKNIVTPR
Description: as §1

| Sequence | nb positive T cell lines ([1]; across all 16 donors) | cumulative donor coverage (%) ([1]; cumulative over peptides ranked by donor coverage) | Donor coverage ( %) [1] [%] | responding donors [1] | response intensity ( %) [1] | Ratio IC50 DRB1*1101 (HLA-DRB1*1101) | Ratio IC50 DRB1*0301 (HLA-DRB1*0301) | Ratio IC50 DRB1*0701 (HLA-DRB1*0701) | Ratio IC50 DRB1*0101 (HLA-DRB1*0101) | Ratio IC50 DRB1*0401 (HLA-DRB1*0401) | Ratio IC50 DRB1*1501 (HLA-DRB1*1501) |
| --- | --- | --- | --- | --- | --- | --- | --- | --- | --- | --- | --- |
| GHTFLVRNHRQASLEISPIT [P292-311, 20-mer FVIII peptide, A1 domain] | 26 | 81 | 75 | 12 | 2,98% | 0.05 | 72 | 1 | 34 | 22.5 |  |
| TQGVKSLLTSMYVKEFLISS [P2264-2283, 20-mer FVIII peptide, C2 domain] |  |  | 50 | 8 | 1,72% | 0.05 | 17 | 0.05 | 6242 | 5.5 | 480 |
